Entries after “also recorded” stand apart in the source; their conditions may differ. Ends that are not written are not given here.
T1: αβγENaC (Rattus norvegicus, UniProt P37089+P37090+P37091)
T1 construct: expressed in transfected cells; host or cells: Xenopus laevis oocytes (cRNA injection)
T1 sequence (P37089 1-698): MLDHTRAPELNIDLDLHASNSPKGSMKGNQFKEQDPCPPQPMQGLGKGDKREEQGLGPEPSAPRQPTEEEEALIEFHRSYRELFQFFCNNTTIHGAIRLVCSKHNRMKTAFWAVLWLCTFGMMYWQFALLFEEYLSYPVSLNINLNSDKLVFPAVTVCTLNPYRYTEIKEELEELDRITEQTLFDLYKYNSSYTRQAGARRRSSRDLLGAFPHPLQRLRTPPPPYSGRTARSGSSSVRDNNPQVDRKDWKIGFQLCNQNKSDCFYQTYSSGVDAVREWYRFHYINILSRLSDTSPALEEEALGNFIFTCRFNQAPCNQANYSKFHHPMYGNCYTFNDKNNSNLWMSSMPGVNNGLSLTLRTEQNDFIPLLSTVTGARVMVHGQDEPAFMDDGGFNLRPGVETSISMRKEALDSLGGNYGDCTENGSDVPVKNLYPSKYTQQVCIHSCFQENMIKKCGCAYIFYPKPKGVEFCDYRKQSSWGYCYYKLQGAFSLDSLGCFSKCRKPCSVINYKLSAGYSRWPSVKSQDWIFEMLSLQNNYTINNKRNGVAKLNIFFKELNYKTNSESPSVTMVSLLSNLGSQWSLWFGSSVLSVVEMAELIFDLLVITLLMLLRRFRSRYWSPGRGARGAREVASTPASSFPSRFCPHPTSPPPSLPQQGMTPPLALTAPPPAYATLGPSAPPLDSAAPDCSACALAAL
T1 sequence (P37090 1-638): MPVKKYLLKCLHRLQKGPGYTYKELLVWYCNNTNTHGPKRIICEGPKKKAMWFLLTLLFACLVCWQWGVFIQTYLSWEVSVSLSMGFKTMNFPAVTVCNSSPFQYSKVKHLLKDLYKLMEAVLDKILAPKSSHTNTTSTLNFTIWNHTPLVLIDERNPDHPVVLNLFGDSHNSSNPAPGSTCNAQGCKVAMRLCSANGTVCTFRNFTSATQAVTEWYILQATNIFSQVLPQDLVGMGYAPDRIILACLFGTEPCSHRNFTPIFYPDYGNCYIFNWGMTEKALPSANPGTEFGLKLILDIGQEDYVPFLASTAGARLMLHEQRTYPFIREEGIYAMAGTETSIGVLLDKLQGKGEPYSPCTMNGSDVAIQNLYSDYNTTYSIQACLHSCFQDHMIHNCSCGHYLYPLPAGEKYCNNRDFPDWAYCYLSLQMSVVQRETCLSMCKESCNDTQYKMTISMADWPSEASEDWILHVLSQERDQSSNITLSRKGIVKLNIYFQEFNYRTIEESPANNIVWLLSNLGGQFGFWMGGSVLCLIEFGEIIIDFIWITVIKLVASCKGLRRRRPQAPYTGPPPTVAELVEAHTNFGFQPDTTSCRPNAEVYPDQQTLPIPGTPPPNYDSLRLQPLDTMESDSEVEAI
T1 sequence (P37091 1-650): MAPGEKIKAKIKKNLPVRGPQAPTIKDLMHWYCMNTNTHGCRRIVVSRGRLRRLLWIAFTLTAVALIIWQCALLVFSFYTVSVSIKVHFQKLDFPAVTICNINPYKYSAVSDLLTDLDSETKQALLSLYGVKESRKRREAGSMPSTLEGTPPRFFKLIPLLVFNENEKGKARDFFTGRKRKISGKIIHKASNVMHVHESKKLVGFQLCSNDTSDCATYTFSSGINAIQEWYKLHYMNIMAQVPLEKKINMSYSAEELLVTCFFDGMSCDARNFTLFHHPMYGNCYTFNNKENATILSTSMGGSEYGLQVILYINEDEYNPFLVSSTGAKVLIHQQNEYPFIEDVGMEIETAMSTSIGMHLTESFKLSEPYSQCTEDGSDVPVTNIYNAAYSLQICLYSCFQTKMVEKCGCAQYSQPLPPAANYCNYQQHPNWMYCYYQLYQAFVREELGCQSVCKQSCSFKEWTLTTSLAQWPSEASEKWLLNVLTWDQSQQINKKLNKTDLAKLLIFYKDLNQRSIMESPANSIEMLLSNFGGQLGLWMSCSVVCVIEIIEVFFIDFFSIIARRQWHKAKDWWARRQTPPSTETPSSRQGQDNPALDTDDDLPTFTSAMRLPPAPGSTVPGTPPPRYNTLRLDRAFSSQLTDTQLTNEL

B1: SPLUNC1: human SPLUNC1 (SEQ ID NO:1), 256 amino acid secreted PLUNC family protein; rSPLUNC1 is the purified V5/6His-tagged recombinant form (protein, listed as Homo sapiens)
chain: MFQTGGLIVFYGLLAQTMAQFGGLPVPLDQTLPLNVNPALPLSPTGLAGSLTNALSNGLLSGGLLGILENLPLLDILKPGGGTSGGLLGGLLGKVTSVIPGLNNIIDIKVTDPQLLELGLVQSPDGHRLYVTIPLGIKLQVNTPLVGASLLRLAVKLDITAEILAVRDKQERIHLVLGDCTHSPGSLQISLLDGLGPLPIQGLLDSLTGILNKVLPELVQGNVCPLVNEVLRGLDITLVHDIVNMLIHGLQFVIKV
modifications: V5/6His tag in recombinant form
notes: rSPLUNC1 is the purified V5/6His-tagged recombinant form

Tests used:
αβγENaC [1] = target: T1, αβγENaC; experiment: Amiloride-sensitive whole cell current, two electrode voltage clamp, Xenopus laevis oocytes expressing αβγENaC; type: cell-based
Method: Xenopus laevis oocytes were harvested and injected as described (Donaldson, et al., J. Biol. Chem. 277:8338 (2002)). Defolliculated healthy stage V-VI oocytes were injected with 0.3 ng of CRNA of each ENaC subunit. Injected oocytes were kept in modified Barth's saline (in mM: 88 NaCl, 1 KCl, 2.4 NaHCO3, 0.3 Ca(NO3)2, 0.41 CaCl2, 0.82 MgSO4, and 15 HEPES, adjusted to pH 7.35 with Tris). Oocytes were studied 24 hr after injection using the two electrode voltage clamp technique as previously described (Donaldson, et al., J. Biol. Chem. 277:8338 (2002)). Oocytes were clamped at a holding potential of −60 mV. The change in amiloride-sensitive whole cell current as an indicator of ENaC activity was determined by subtracting the corresponding current value measured in the presence of 10 μM amiloride from that measured before the application of amiloride. Where appropriate, oocytes were incubated with G22-A39 or ABC for 1 h prior to recording. In some experiments β-ENaC^S518C was used which forms ENaCs that are locked into an open probability near 1.0 by exposure to the sulthydral reactive reagent [2-(Trimethyl-ammonium)ethyl]methanethiosulphonate bromide (MTSET). MTSET was added at a concentration of 1 mM to the oocyte bath as previously described (Snyder, J. Clin. Invest. 105: 45 (2000)).

αβγENaC [2] = target: T1, αβγENaC; experiment: Amiloride-sensitive whole cell current, two electrode voltage clamp, Xenopus laevis oocytes expressing αβγENaC; type: cell-based; settings: 100 μM in bath for 2 h; pH 6 vs 7.4

Method for CF HBECs: To label airway surface liquid, Ringer containing Texas Red-dextran (2 mg/ml; Invitrogen) was added to human bronchial epithelial culture mucosal surfaces. Perfluorocarbon was added mucosally to prevent evaporation of the airway surface liquid and the culture placed in a chamber containing 100 μl Ringer on the stage of a Leica SP5 confocal microscope with a 63× glycerol immersion objective. 5 points per culture were scanned and an average airway surface liquid height determined. For confocal microscopy human bronchial epithelial cultures were bathed serosally in a modified Ringer solution containing (mM): 116 NaCl, 10 NaHCO3, 5.1 KCl, 1.2 CaCl2, 1.2 MgCl2, 20 TES, 10 glucose, pH 7.4). At all other times, human bronchial epithelial cultures were maintained in a modified BEGM growth medium which contained 24 mM NaHCO3 gassed with 5% CO2.
To label the ASL, PBS containing 10 kDa Rhodamine dextran (0.2-2 mg/mL; Invitrogen, Carlsbad, Calif., USA) was added to HBEC mucosal surfaces as previously described (Tarran et al., Mol. Cell 8:149 (2001)). When added, peptides with or without 100 nM neutrophil elastase, 1 U/mL aprotinin, activated neutrophil supernatant (ANS) (Haynes et al., Am. J. Physiol. Heart Circ. Physiol. 294:H379 (2008)) or 10 μM sivelestat (Sigma-Aldrich, St Louis, Mo., USA) were added to the mucosal surface along with the Rhodamine dextran. Bumetanide (100 μM) was added to the serosal solution.

Molecule	inhibition of ENaC current by peptide in bath (αβγENaC [1]; 10 μM in oocyte bath for 1 h)	effect of N-terminal biotinylation on ability to inhibit ENaC (αβγENaC [1]; n=6)	ASL absorption (CF HBECs; 10 μM apical, over 24 h)	CF ASL absorption, paired cultures (CF HBECs; 100 μM SPLUNC1 or S18)	IC50 (CF HBECs; 8 h) [nM]	CF ASL hyperabsorption in the presence of activated neutrophil supernatant (CF HBECs; 8 h ASL height, ANS)	CF ASL hyperabsorption in the presence of neutrophil elastase (CF HBECs; 8 h ASL height, neutrophil elastase)	heat stability: inhibition of CF ASL absorption after heating (CF HBECs; peptide heated to 67° C. for 30 min, also with neutrophil elastase)	inhibition of amiloride-sensitive ENaC current at pH 6 (αβγENaC [2])	activation of ENaC currents by prostasin (CAP1) and CAP2 (αβγENaC [1]; SPLUNC1 co-expressed)	trypsin stimulation of ENaC activity (αβγENaC [1]; SPLUNC1 co-expressed)	inhibition of ENaC by C-terminal truncation mutants (αβγENaC [1]; co-expressed in oocytes, all p<0.0001 where significant)	CF ASL volume homeostasis in SPLUNC1 knockdown CF HBECs (CF HBECs; recombinant SPLUNC1 together with POPSO-Ringer)
GGLPVPLDQTLPLNVNPA [S18]	inhibited ENaC to the same degree as the full length protein; also recorded: inhibits both basal and trypsin-stimulated ENaC current	no effect	significantly blocked ASL absorption	inhibited CF ASL absorption	600	prevented CF ASL hyperabsorption	prevented CF ASL hyperabsorption	no effect on the ability of S18 to inhibit CF ASL absorption	still inhibits ENaC	–	–	–	–
B1	–	–	–	–	–	–	–	–	abolished at pH 6	significantly reduced	attenuated	Significant inhibition	required to restore CF ASL volume homeostasis
